Reference: publication PMC11747885, “Potent inhibitors of the human RNA ligase Rlig1 highlights its role in RNA integrity maintenance under oxidative cellular stress” (Chemical Science, 2025)
“And” between values parts separate entries of the source, which are not always exact repeats. Identical values can stand only once. Like-named read-outs stand apart in the source and are kept apart here.

Legend:
Rlig1-AMP = target: T1, Rlig1-AMP (Homo sapiens, UniProt Q8N999); assay: FRET-based high-throughput screening of inhibitors for Rlig1-AMP; format: biochemical; conditions: for 1-D Distance: difference of raw data w/o and w enzyme; for Raw data [w Enyzm]: with enzyme; for Raw data [w/o Enzym]: without enzyme; for 1-D Distance.npi: MedChemExpress library
T1 construct: made in house; host or cells: E. coli BL21 (DE3), pET15b-Rlig1

[1] = target: ATPase family AAA domain-containing protein 2 (ATAD2); parameters: method as in MedChemExpress; conditions: ref MedChemExpress; cited from earlier work
[2] = ref MedChemExpress, cited from earlier work
LTB4 receptor = target: LTB4 receptor; parameters: method as in MedChemExpress [1]; conditions: isolated human neutrophil cell membranes; ref MedChemExpress [1]; cited from earlier work
DPP-4 = system: DPP-4; parameters: method as in MedChemExpress [1]; conditions: ref MedChemExpress [1]; cited from earlier work
all proteases tested = system: all proteases tested; parameters: method as in MedChemExpress; conditions: selectivity; ref MedChemExpress; cited from earlier work
IKr, Cav1.2, and Nav1.5 = system: IKr, Cav1.2, and Nav1.5; parameters: method as in MedChemExpress; conditions: ion channel activity; ref MedChemExpress; cited from earlier work
[3] = target: 168 radioligand binding or enzymatic assays; parameters: method as in MedChemExpress; conditions: MDS Pharma, ref MedChemExpress, read-out: IC50 in all counterscreen assays; cited from earlier work
[4] = parameters: method as in MedChemExpress; conditions: OGTT, oral 1 h prior to dextrose challenge, ref MedChemExpress, cited from earlier work
[5] = in DMSO; ref MedChemExpress; cited from earlier work
EBOV Zaire = conditions: ref MedChemExpress [1][2]; read-out: IC50 infectious EBOV Zaire; cited from earlier work
Marburg (MARV) = conditions: ref MedChemExpress [1][2]; cited from earlier work

T1 sequence (Q8N999 whole entry): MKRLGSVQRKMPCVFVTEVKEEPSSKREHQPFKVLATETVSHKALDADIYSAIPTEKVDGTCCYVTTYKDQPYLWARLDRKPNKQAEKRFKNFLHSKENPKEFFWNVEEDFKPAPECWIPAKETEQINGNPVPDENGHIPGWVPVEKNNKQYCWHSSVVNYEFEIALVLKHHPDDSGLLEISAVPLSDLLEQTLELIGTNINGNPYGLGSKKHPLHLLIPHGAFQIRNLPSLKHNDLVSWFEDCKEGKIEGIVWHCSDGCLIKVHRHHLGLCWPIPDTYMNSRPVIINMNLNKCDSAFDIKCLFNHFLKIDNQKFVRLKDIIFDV

COc1cc(Cl)c(C(=O)N[C@@H](CN[C@H]2CC[C@@H](N)CC2)Cc2ccc(C#N)cc2)cc1-c1ccc(CN[C@H](C)c2ccc(C)cc2)o1 [BAY-850]
1-D Distance (Rlig1-AMP; HTS hits): 2218
Raw data [w Enyzm] (Rlig1-AMP; HTS hits): 10576
Raw data [w/o Enzym] (Rlig1-AMP; HTS hits): 12794
IC50 [1]: 166 nM
solubility ([2]; DMSO): 62.5 mg/mL and 95.53 mM
solubility ([2]; H2O): < 0.1 mg/mL

CC(C)(c1ccc(O)cc1)c1ccc(OCc2cccc(COc3ccc(C(=N)N)cc3)c2)cc1.Cl [BIIL-260 (hydrochloride)]
1-D Distance.npi (Rlig1-AMP; sheet HTS hits): 102.737
1-D Distance (Rlig1-AMP; sheet HTS hits): 216
Raw data [w Enyzm] (Rlig1-AMP; sheet HTS hits): 4623
Raw data [w/o Enzym] (Rlig1-AMP; sheet HTS hits): 4407
Ki (LTB4 receptor): 1.7 nM

CS(=O)(=O)n1cc2c(n1)CN([C@H]1CO[C@H](c3cc(F)ccc3F)[C@@H](N)C1)C2 [Omarigliptin]
1-D Distance (Rlig1-AMP; sheet HTS hits): 1732
Raw data [w Enyzm] (Rlig1-AMP; sheet HTS hits): 9138
Raw data [w/o Enzym] (Rlig1-AMP; sheet HTS hits): 10870
IC50 (DPP-4): 1.6 nM
IC50 (all proteases tested): > 67000 nM
IC50 (IKr, Cav1.2, and Nav1.5): > 30000 nM
IC50 [3]: > 10000 nM
reduction in glucose AUC ([4]; 0.01 mg/kg): 7%
reduction in glucose AUC ([4]; 0.3 mg/kg): 51%
solubility, DMSO [5]: DMSO : 50 mg/mL (125.49 mM; Need ultrasonic)

CN(C)CCOc1ccc(/C(=C(/CCCl)c2ccccc2)c2ccccc2)cc1.O=C(O)CC(O)(CC(=O)O)C(=O)O [Toremifene (citrate)]
1-D Distance.npi (Rlig1-AMP; sheet HTS hits): 77.3877
1-D Distance (Rlig1-AMP; sheet HTS hits): 1366
Raw data [w Enyzm] (Rlig1-AMP; sheet HTS hits): 9443
IC50 (EBOV Zaire): 70 nM
IC50 (Marburg (MARV)): 2600 nM
